Assay results from ChEMBL document CHEMBL5131459, “Semisynthesis and neurotrophic activity studies of novel neomajucin/majucin derivatives as neurotrophin small molecule mimetics” (Bioorg Med Chem Lett, 2022).
Calls of active or inactive are those of the source. The calls are words filed in the database; no cut-off is given here.

Test system: PC-12
Assay: Neuroprotective activity in […] cells assessed as induction of NGF-mediated neurite outgrowth by measuring differentiation rate of neurite-beating cells at 10 uM incubated for 72 hrs (reference value: 4.27 +/- 0.04 %)
Format: functional, Rattus norvegicus
Conditions: not given

Question: Which Activity does the source give for `C[C@@H]1C[C@@H](OC(=O)CCc2cccc(Cl)c2)[C@@]2(O)[C@@]13C[C@@H](OC(=O)[C@@H]3O)[C@@]1(O)C(=O)OC[C@@]21C` here?
Answer: The Activity was 4.69%.

Question: Which Activity does the source give for `C[C@@H]1C[C@@H](OC(=O)CCc2ccc(F)cc2)[C@@]2(O)[C@@]13C[C@@H](OC(=O)[C@@H]3O)[C@@]1(O)C(=O)OC[C@@]21C` here?
Answer: The Activity was 10.96%.

Question: Which Activity does the source give for `C[C@@H]1CC[C@@]2(O)[C@@]13C[C@@H](OC(=O)[C@@H]3O)[C@@]1(OC(=O)CCc3cccc(Br)c3)C(=O)OC[C@@]21C` here?
Answer: The Activity was 5.04%.

Question: Which Activity does the source give for `C[C@@H]1C[C@@H](OC(=O)CCC(=O)c2ccccc2)[C@@]2(O)[C@@]13C[C@@H](OC(=O)[C@@H]3O)[C@@]1(OC(=O)CCC(=O)c3ccccc3)C(=O)OC[C@@]21C` here?
Answer: The Activity was 5.25%.

Question: For `C[C@@H]1C[C@@H](OC(=O)CCC(=O)c2ccccc2)[C@@]2(O)[C@@]13C[C@@H](OC(=O)[C@@H]3O)[C@@]1(O)C(=O)OC[C@@]21C`, which Activity is on record?
Answer: Its Activity is 6.42%.

Question: Which Activity does the source give for `C[C@@H]1CC[C@@]2(O)[C@@]13C[C@@H](OC(=O)[C@@H]3O)[C@@]1(OC(=O)Cc3ccc(F)cc3)C(=O)OC[C@@]21C` here?
Answer: The Activity was 5.85%.

Question: With `C[C@@H]1CC[C@@]2(O)[C@@]13C[C@@H](OC(=O)[C@@H]3O)[C@@]1(OC(=O)Cc3ccc4ccccc4c3)C(=O)OC[C@@]21C` as the compound, how does the Activity read?
Answer: The Activity was 5.55%.

Question: For `C[C@@H]1C[C@@H](OC(=O)CCc2cccc(Br)c2)[C@@]2(O)[C@@]13C[C@@H](OC(=O)[C@@H]3O)[C@@]1(OC(=O)CCc3cccc(Br)c3)C(=O)OC[C@@]21C`, which Activity is on record?
Answer: Its Activity is 5.1%.

Question: With `COc1ccc(CC(=O)O[C@]23C(=O)OC[C@@]2(C)[C@@]2(O)CC[C@@H](C)[C@]24C[C@H]3OC(=O)[C@@H]4O)cc1` as the compound, how does the Activity read?
Answer: Its Activity is 5.27%.

Question: Which Activity does the source give for `C[C@@H]1C[C@@H](OC(=O)CCc2cccc(Cl)c2)[C@@]2(O)[C@@]13C[C@@H](OC(=O)[C@@H]3O)[C@@]1(OC(=O)CCc3cccc(Cl)c3)C(=O)OC[C@@]21C` here?
Answer: The Activity was 4.54%.

Question: Which Activity does the source give for `C[C@@H]1CC[C@@]2(O)[C@@]13C[C@@H](OC(=O)[C@@H]3O)[C@@]1(OC(=O)Cc3ccc(Cl)cc3)C(=O)OC[C@@]21C` here?
Answer: Its Activity is 5.52%.

Question: Which Activity does the source give for `C[C@@H]1CC[C@@]2(O)[C@@]13C[C@@H](OC(=O)[C@@H]3O)[C@@]1(OC(=O)CCCCBr)C(=O)OC[C@@]21C` here?
Answer: Its Activity is 5.28%.

Question: Which Activity does the source give for `C[C@@H]1CC[C@@]2(O)[C@@]13C[C@@H](OC(=O)[C@@H]3O)[C@@]1(OC(=O)Cc3ccc(Br)cc3)C(=O)OC[C@@]21C` here?
Answer: Its Activity is 4.9%.

Question: Which Activity does the source give for `C[C@@H]1CC[C@@]2(O)[C@@]13C[C@@H](OC(=O)[C@@H]3O)[C@@]1(OC(=O)CCc3ccc(Br)cc3)C(=O)OC[C@@]21C` here?
Answer: Its Activity is 6.85%.

Question: For `C[C@@H]1C[C@@H](OC(=O)CCc2ccc(F)cc2)[C@@]2(O)[C@@]13C[C@@H](OC(=O)[C@@H]3O)[C@@]1(OC(=O)CCc3ccc(F)cc3)C(=O)OC[C@@]21C`, which Activity is on record?
Answer: Its Activity is 9.41%.

Question: Which Activity does the source give for `C[C@@H]1C[C@@H](OC(=O)CCc2ccccc2)[C@@]2(O)[C@@]13C[C@@H](OC(=O)[C@@H]3O)[C@@]1(O)C(=O)OC[C@@]21C` here?
Answer: The Activity was 9.67%.

Question: For `C[C@@H]1CC[C@@]2(O)[C@@]13C[C@@H](OC(=O)[C@@H]3O)[C@@]1(OC(=O)CCc3ccc(Cl)cc3)C(=O)OC[C@@]21C`, which Activity is on record?
Answer: The Activity was 6.05%.

Question: With `C[C@@H]1CC[C@@]2(O)[C@@]13C[C@@H](OC(=O)[C@@H]3O)[C@@]1(OC(=O)Cc3cccc(Br)c3)C(=O)OC[C@@]21C` as the compound, how does the Activity read?
Answer: Its Activity is 6.91%.

Question: For `COc1cc(CC(=O)O[C@]23C(=O)OC[C@@]2(C)[C@@]2(O)CC[C@@H](C)[C@]24C[C@H]3OC(=O)[C@@H]4O)cc(OC)c1OC`, which Activity is on record?
Answer: The Activity was 6.06%.

Question: Which Activity does the source give for `C[C@@H]1C[C@@H](OC(=O)CCc2ccc(Cl)cc2)[C@@]2(O)[C@@]13C[C@@H](OC(=O)[C@@H]3O)[C@@]1(OC(=O)CCc3ccc(Cl)cc3)C(=O)OC[C@@]21C` here?
Answer: Its Activity is 5.21%.

Question: With `C[C@@H]1CC[C@@]2(O)[C@@]13C[C@@H](OC(=O)[C@@H]3O)[C@@]1(OC(=O)Cc3cccc(Cl)c3)C(=O)OC[C@@]21C` as the compound, how does the Activity read?
Answer: The Activity was 5.53%.

Question: With `C[C@@H]1C[C@@H](OC(=O)CCc2ccccc2)[C@@]2(O)[C@@]13C[C@@H](OC(=O)[C@@H]3O)[C@@]1(OC(=O)CCc3ccccc3)C(=O)OC[C@@]21C` as the compound, how does the Activity read?
Answer: Its Activity is 5.47%.

Question: For `C[C@@H]1CC[C@@]2(O)[C@@]13C[C@@H](OC(=O)[C@@H]3O)[C@@]1(OC(=O)CCc3ccc(F)cc3)C(=O)OC[C@@]21C`, which Activity is on record?
Answer: The Activity was 8.99%.

Question: With `C[C@@H]1CC[C@@]2(O)[C@@]13C[C@@H](OC(=O)[C@@H]3O)[C@@]1(O)C(=O)OC[C@@]21C` as the compound, how does the Activity read?
Answer: Its Activity is 8.76%.

Question: For `C/C=C/C=C/C(=O)O[C@@H]1C[C@@H](C)[C@@]23C[C@@H](OC(=O)[C@@H]2O)[C@@]2(O)C(=O)OC[C@@]2(C)[C@@]13O`, which Activity is on record?
Answer: The Activity was 11.83%.

Question: With `C[C@@H]1CC[C@@]2(O)[C@@]13C[C@@H](OC(=O)[C@@H]3O)[C@@]1(OC(=O)CCc3cccc(F)c3)C(=O)OC[C@@]21C` as the compound, how does the Activity read?
Answer: The Activity was 5.7%.

Question: Which Activity does the source give for `C[C@@H]1CC[C@@]2(O)[C@@]13C[C@@H](OC(=O)[C@@H]3O)[C@@]1(OC(=O)/C=C/c3ccccc3)C(=O)OC[C@@]21C` here?
Answer: Its Activity is 5.38%.

Question: For `C[C@@H]1CC[C@@]2(O)[C@@]13C[C@@H](OC(=O)[C@@H]3O)[C@@]1(OC(=O)CCc3ccccc3)C(=O)OC[C@@]21C`, which Activity is on record?
Answer: Its Activity is 10.04%.

Question: Which Activity does the source give for `C[C@@H]1CC[C@@]2(O)[C@@]13C[C@@H](OC(=O)[C@@H]3O)[C@@]1(OC(=O)CCCBr)C(=O)OC[C@@]21C` here?
Answer: Its Activity is 6.04%.

Question: For `C[C@@H]1CC[C@@]2(O)[C@@]13C[C@@H](OC(=O)[C@@H]3O)[C@@]1(OC(=O)CCc3cccc(Cl)c3)C(=O)OC[C@@]21C`, which Activity is on record?
Answer: Its Activity is 4.88%.

Question: Which Activity does the source give for `C[C@@H]1CC[C@@]2(O)[C@@]13C[C@@H](OC(=O)[C@@H]3O)[C@@]1(OC(=O)CCC(=O)c3ccccc3)C(=O)OC[C@@]21C` here?
Answer: Its Activity is 8.79%.

Question: Which Activity does the source give for `C[C@@H]1C[C@@H](OC(=O)CCc2ccc(Cl)cc2)[C@@]2(O)[C@@]13C[C@@H](OC(=O)[C@@H]3O)[C@@]1(O)C(=O)OC[C@@]21C` here?
Answer: The Activity was 5.03%.

Question: For `C[C@@H]1C[C@@H](OC(=O)CCc2ccc(Br)cc2)[C@@]2(O)[C@@]13C[C@@H](OC(=O)[C@@H]3O)[C@@]1(OC(=O)CCc3ccc(Br)cc3)C(=O)OC[C@@]21C`, which Activity is on record?
Answer: The Activity was 8.73%.

Question: With `C[C@@H]1C[C@@H](O)[C@@]2(O)[C@@]13C[C@@H](OC(=O)[C@@H]3O)[C@@]1(O)C(=O)OC[C@@]21C` as the compound, how does the Activity read?
Answer: Its Activity is 6.25%.

Question: Which Activity does the source give for `C[C@@H]1C[C@@H](OC(=O)CCc2cccc(Br)c2)[C@@]2(O)[C@@]13C[C@@H](OC(=O)[C@@H]3O)[C@@]1(O)C(=O)OC[C@@]21C` here?
Answer: The Activity was 5.56%.

Question: Which Activity does the source give for `C/C=C/C=C/C(=O)O[C@]12C(=O)OC[C@@]1(C)[C@@]1(O)CC[C@@H](C)[C@]13C[C@H]2OC(=O)[C@@H]3O` here?
Answer: The Activity was 11.02%.

Question: For `C[C@@H]1C[C@@H](OC(=O)CCc2ccc(Br)cc2)[C@@]2(O)[C@@]13C[C@@H](OC(=O)[C@@H]3O)[C@@]1(O)C(=O)OC[C@@]21C`, which Activity is on record?
Answer: Its Activity is 10.02%.

Question: For `C[C@@H]1C[C@@H](OC(=O)CCc2cccc(F)c2)[C@@]2(O)[C@@]13C[C@@H](OC(=O)[C@@H]3O)[C@@]1(OC(=O)CCc3cccc(F)c3)C(=O)OC[C@@]21C`, which Activity is on record?
Answer: The Activity was 4.93%.

Question: For `C[C@@H]1C[C@@H](OC(=O)CCc2cccc(F)c2)[C@@]2(O)[C@@]13C[C@@H](OC(=O)[C@@H]3O)[C@@]1(O)C(=O)OC[C@@]21C`, which Activity is on record?
Answer: Its Activity is 5.78%.

Question: Which Activity does the source give for `C/C=C/C=C/C(=O)O[C@@H]1C[C@@H](C)[C@@]23C[C@@H](OC(=O)[C@@H]2O)[C@@]2(OC(=O)/C=C/C=C/C)C(=O)OC[C@@]2(C)[C@@]13O` here?
Answer: The Activity was 5.13%.

Question: Which Activity does the source give for `C[C@@H]1CC[C@@]2(O)[C@@]13C[C@@H](OC(=O)[C@@H]3O)[C@@]1(OC(=O)Cc3cccc(F)c3)C(=O)OC[C@@]21C` here?
Answer: Its Activity is 5.9%.

Test system: PC-12
Assay: Neuroprotective activity in […] cells assessed as induction of NGF-mediated neurite outgrowth by measuring protrusion length extension at 10 uM by methylene blue staining based light microscopic analysis
Format: functional, cell-based
Conditions: Rattus norvegicus

Question: Which Activity does the source give for `C[C@@H]1C[C@@H](OC(=O)CCc2ccc(F)cc2)[C@@]2(O)[C@@]13C[C@@H](OC(=O)[C@@H]3O)[C@@]1(O)C(=O)OC[C@@]21C` here?
Answer: The Activity was “Active”.

Question: For `C/C=C/C=C/C(=O)O[C@@H]1C[C@@H](C)[C@@]23C[C@@H](OC(=O)[C@@H]2O)[C@@]2(O)C(=O)OC[C@@]2(C)[C@@]13O`, which Activity is on record?
Answer: The Activity was “Active”.

Question: Which Activity does the source give for `C/C=C/C=C/C(=O)O[C@]12C(=O)OC[C@@]1(C)[C@@]1(O)CC[C@@H](C)[C@]13C[C@H]2OC(=O)[C@@H]3O` here?
Answer: The Activity was “Active”.

Test system: PC-12
Assay: Neuroprotective activity against MPP+-induced cell injury in […] cells assessed as cell survival rate at 20 uM (reference value: 68.60 +/- 1.06 %)
Format: functional
Conditions: Rattus norvegicus, read-out: Survival

Question: For `C/C=C/C=C/C(=O)O[C@@H]1C[C@@H](C)[C@@]23C[C@@H](OC(=O)[C@@H]2O)[C@@]2(O)C(=O)OC[C@@]2(C)[C@@]13O`, which viability at 20 µM is on record?
Answer: The viability at 20 µM was 68.5%.

Question: Which viability at 20 µM does the source give for `C/C=C/C=C/C(=O)O[C@]12C(=O)OC[C@@]1(C)[C@@]1(O)CC[C@@H](C)[C@]13C[C@H]2OC(=O)[C@@H]3O` here?
Answer: Its viability at 20 µM is 72.5%.

Test system: not listed separately
Assay: Cytotoxicity against […] cells assessed as inhibition of cell growth by CCK-8 assay
Format: toxicity, cell-based
Conditions: rat

Question: Which IC50 does the source give for `C/C=C/C=C/C(=O)O[C@@H]1C[C@@H](C)[C@@]23C[C@@H](OC(=O)[C@@H]2O)[C@@]2(O)C(=O)OC[C@@]2(C)[C@@]13O` here?
Answer: The IC50 was over 512 µg/mL.

Question: Which IC50 does the source give for `C/C=C/C=C/C(=O)O[C@]12C(=O)OC[C@@]1(C)[C@@]1(O)CC[C@@H](C)[C@]13C[C@H]2OC(=O)[C@@H]3O` here?
Answer: Its IC50 is over 512 µg/mL.
